Results on 35 compounds are retold here after PMC9193972, “Candidate Chemosensory Genes Identified in the Adult Antennae of Sympiezomias velatus and Binding Property of Odorant-Binding Protein 15” (Frontiers in Physiology, 2022).

Bounds are passed on as bounds.

In general, Ki refers to the dissociation constant of the complex between target and ligand, obtained from inhibition or displacement. For orientation: IC50 means the point on the concentration scale where inhibition reaches its midpoint.

The target of experiment [1] is recombinant SvelOBP15. Put plainly: Fluorescence competitive binding assay with 1-NPN as fluorescent reporter. Also on record: species or system Sympiezomias velatus. As to conditions: for Ki: calculated from IC50, mean ± SE, read-out: Ki (dissociation constant); for Ki / IC50: 1-NPN 2 μmol/L; for IC50: competitor 2 to 20 μmol/L, concentration halving the fluorescence of 1-NPN; for binding to SvelOBP15 (in words): competitive binding, competitor up to 20 μmol/L. Here is the method:
The whole ORF of SvelOBP15 was successfully validated by RT-PCR and Sanger sequencing and then synthesized (without the signal peptide-encoding region) by Sangon Biotech (Shanghai, China). It was first cloned into the pGEM-T cloning vector (Promega, Madison, United States) and then subcloned into the expression vector pET-30a(+) (Novagen, Darmstadt, Germany). Recombinant SvelOBP15 was expressed in Escherichia coli Transetta (DE3) following induction with 0.5 mM isopropyl-b-D-thiogalactopyranoside (IPTG) after the culture reached an OD600 of 0.4–0.6. Incubation was continued at 37°C with shaking at 220 rpm for an additional 6 h. […] Denaturation and renaturation were performed following previously reported methods ([Liu et al., 2012]). The protein was purified using a HisTrap HP prepacked column (GE Healthcare, Pittsburgh, United States) according to the manufacturer’s instructions, and recombinant enterokinase (rEK) (GenScript Biology Company, Nanjing, China) was used to remove the His-tag. After running the digested protein back through the HisTrap HP prepacked column, the tag-free protein was obtained in the flow-through fraction. Proteins were visualized at all stages of purification by SDS-PAGE.
(§1) Fluorescence competitive binding assays were performed as reported previously ([Liu et al., 2015]). This assay was conducted on a Hitachi F-7000 fluorescence spectrophotometer with a 1-cm light path quartz cuvette and 10-nm slits for both excitation and emission. The excitation wavelength was 337 nm, and the emission spectrum was recorded between 390 and 460 nm. First, to determine the binding affinities of N-phenyl-1-naphthylamine (1-NPN) to OBP15, the fluorescence intensity values at maximum fluorescence emissions were plotted against the free ligand concentration by titrating increasing concentrations of 1-NPN. The binding curves were linearized using Scatchard plots. Next, competitive binding assays of OBP15 to 33 chemicals (Supplementary Table S2) of different structural characteristics were carried out using 1-NPN as the fluorescent reporter at a concentration of 2 μmol/L, whereas the concentration of each competitor varied from 2 to 20 μmol/L. These chemicals included the volatile components of host plants such as peanut, elm, maize, cotton, etc. ([Hammack, 2001]; [Cardoza et al., 2002]; [Ngumbi et al., 2009]; [Cheng et al., 2010]) and aggregation pheromone components of curculionids ([Gries et al., 1993]; [Hallett et al., 1993]; [Eller et al., 1994]; [Szendrei et al., 2011]). Chemicals were purchased from Sigma-Aldrich (St. Louis, United States) (purity >95% or 90%). Based on the assumption that the activity of proteins was 100% with a saturation stoichiometry of 1:1 (protein: ligand), the dissociation constants (Ki) of the competitors were calculated from the IC50 values (the concentrations of the ligands halving the fluorescence of 1-NPN) using the following equation:
Ki = [IC50]/(1 + [1-NPN]/K1-NPN) ([Ban et al., 2003]).Where [1-NPN] is the free concentration of 1-NPN and K1-NPN is the dissociation constant of the complex protein/1-NPN.
Ki values of various compounds (mean ± SE) were subjected to one-way ANOVA followed by Tukey post hoc test for mean comparison using SPSS Statistics 20.0 (SPSS Inc., Chicago, United States).

The target of experiment [2] is recombinant SvelOBP15. Put plainly: 1-NPN titration (binding curve, Scatchard plot). Conditions: titration with increasing 1-NPN, read-out: dissociation constant of 1-NPN. Set-up: species or system Sympiezomias velatus. Here is the method: as §1, with “Based on the assumption that the activity of proteins was 100% with a saturation stoichiometry of 1:1 (protein: ligand), the dissociation constants (Ki) of the competitors were calculated from the IC50 values (the concentrations of the ligands halving the fluorescence of 1-NPN) using the following equation:” left out

A further experiment concerns AquaOBP4. Set-up: method as in Wang et al., 2017. As to conditions: ref Wang et al., 2017; cited from earlier work.
The subject of another experiment is SzeaOBP28. Set-up: method as in Zhang Y. et al., 2019. As to conditions: ref Zhang Y. et al., 2019; cited from earlier work.

Take `C=CC(C)(O)CCC=C(C)CCC=C(C)C` (mixture of isomers) [Nerolidol]: the Ki on recombinant SvelOBP15 [1] was 12.9 ± 0.43 µM. On to `Cc1cccc2ccccc12` [1-Methylnaphthalene], for which, on recombinant SvelOBP15 [1], the IC50 is above 20 µM. Take `c1ccc(Nc2cccc3ccccc23)cc1` [1-NPN, N-phenyl-1-naphthylamine]: the Kd at recombinant SvelOBP15 [2] is 4.68 ± 0.16 µM. For `C=CC(O)CCCCC` (stereo not shown) [1-Octen-3-ol], the concentration for half-maximal inhibition (IC50) on recombinant SvelOBP15 [1] was above 20 µM. Still for that read-out and setting: with `CC(=O)c1ccc(C)c(C)c1` [3',4'-Dimethylacetophenone] the figure was above 20 µM; with `CCCCC(O)C(C)CC` (stereo not shown) [3-Methyl-4-octanol], above 20 µM; with `CCc1ccc(C(C)=O)cc1` [4-Ethylacetophenone], above 20 µM.

In the case of `CCCCC(O)C(C)CCC` (stereo not shown) [4-Methyl-5-nonanol], the IC50 at recombinant SvelOBP15 [1] was above 20 µM. Regarding `CCCCC(=O)C(C)CCC` (stereo not shown) [4-Methyl-5-nonanone], the IC50 at recombinant SvelOBP15 [1] was above 20 µM.

Consider `O=C1CCCC1C1CCCC1` (stereo not shown) [(1,1`-Bicyclopentyl)-2-one], for which, on recombinant SvelOBP15 [1], the IC50 was above 20 µM.

With `C=C1CC/C=C(\C)CC[C@@H]2[C@@H]1CC2(C)C` [(-)-trans-Caryophyllene], the IC50 on recombinant SvelOBP15 [1] was above 20 µM. Still for that read-out and setting: with `CC(C)=CCC/C(C)=C/CO` [(E)-3,7-Dimethyl-2,6-octadien-1-ol] the figure was above 20 µM.

As for `CC(C)=CCC/C(C)=C/CC/C(C)=C/CO` [(E,E)-Farnesol], on recombinant SvelOBP15 [1], the IC50 amounted to 9.26 ± 0.43 µM and the Ki is 7.36 ± 0.36 µM. Turning to `O=Cc1ccccc1` [Benzalehyde], on recombinant SvelOBP15 [1], the IC50 was above 20 µM. Take `CC(C)COC(=O)CCCCC(=O)OCC(C)C` [Diisobutyl adipate]: the IC50 on recombinant SvelOBP15 [1] was above 20 µM.

For `CC(C)COC(=O)c1ccccc1C(=O)OCC(C)C` [Diisobutyl phthalate], at recombinant SvelOBP15 [1], the IC50 was 15.8 ± 0.42 µM and the Ki was 12.6 ± 0.34 µM. In the experiment on AquaOBP4, the “binding to AquaOBP4 (in words)” value is recorded as “weakly bound”. On to `CCCCCCCCCCCC` [Dodecane], for which, at recombinant SvelOBP15 [1], the IC50 was above 20 µM and the “binding to SvelOBP15 (in words)” value is given as “cannot be bound”. Regarding `CC(C)=CCC/C(C)=C/C(=O)O` [Geranic acid], on recombinant SvelOBP15 [1], the IC50 was above 20 µM.

For the compound `C=C(C)[C@H]1CC=C(C)CC1` [Limonene], on recombinant SvelOBP15 [1], the IC50 came to 14.7 ± 0.53 µM and the Ki is 11.7 ± 0.47 µM. Turning to `C=CC(C)(O)CCC=C(C)C` (stereo not shown) [Linalool], on recombinant SvelOBP15 [1], the IC50 was above 20 µM. Still for that read-out and setting: with `COC(=O)c1ccccc1O` [Methyl salicylate] the figure was above 20 µM. Same read-out and setting: for `CCCCCCCCC=O` [Nonanal] the value was above 20 µM; for `CCCCCCCCCCCCCCCC(=O)O` [Palmitic acid], above 20 µM.

In the case of `CCCCCCCCCCCCCCC` [Pentadecane], at recombinant SvelOBP15 [1], the IC50 is above 20 µM and the “binding to SvelOBP15 (in words)” value is “cannot be bound”.

For `CCCCCCCCCCCCCC` [Tetradecane], at recombinant SvelOBP15 [1], the IC50 was above 20 µM and the “binding to SvelOBP15 (in words)” value is “cannot be bound”. In the case of `CC/C=C\CCO` [Z-3-hexen-1-ol], the IC50 at recombinant SvelOBP15 [1] is above 20 µM.

As for `COCCOC(=O)c1ccccc1C(=O)OCCOC` [bis (2-methoxyethyl) phthalate], the “binding to SzeaOBP28 (in words)” value in the experiment on SzeaOBP28 was “exhibited a binding affinity”. For `CC/C=C\CCOC(C)=O` [cis-3-Hexenyl acetate], the IC50 on recombinant SvelOBP15 [1] is above 20 µM.

`CCCCCCCCCCCCCCCC` [n-Hexadecane]: on recombinant SvelOBP15 [1], the half-inhibitory concentration (IC50) was above 20 µM and the “binding to SvelOBP15 (in words)” value is listed as “cannot be bound”. For the compound `CCC/C=C/COC(C)=O` [trans-2-Hexenyl acetate], the IC50 at recombinant SvelOBP15 [1] was above 20 µM. Still for that read-out and setting: for `CCC/C=C/C=O` [trans-2-Hexenyl aldehyde] the value was above 20 µM; for `C=C/C(C)=C/C/C=C(\C)CCC=C(C)C` [α-Farnesene], above 20 µM; for `C=C/C(C)=C/CC=C(C)C` [β-Ocimene], above 20 µM. As for (+)-α-Pinene, the IC50 on recombinant SvelOBP15 [1] is above 20 µM. As to (+)-β-Pinene, the IC50 at recombinant SvelOBP15 [1] was above 20 µM.
